Assay [1] has as its target T1, human CCK-2R (Homo sapiens, UniProt P32239).
T1 construct: expressed in transfected cells; host or cells: A431 human epidermoid carcinoma cells, stably transfected (gift of Prof. Luigi Aloj)
T1 sequence (P32239 1-447): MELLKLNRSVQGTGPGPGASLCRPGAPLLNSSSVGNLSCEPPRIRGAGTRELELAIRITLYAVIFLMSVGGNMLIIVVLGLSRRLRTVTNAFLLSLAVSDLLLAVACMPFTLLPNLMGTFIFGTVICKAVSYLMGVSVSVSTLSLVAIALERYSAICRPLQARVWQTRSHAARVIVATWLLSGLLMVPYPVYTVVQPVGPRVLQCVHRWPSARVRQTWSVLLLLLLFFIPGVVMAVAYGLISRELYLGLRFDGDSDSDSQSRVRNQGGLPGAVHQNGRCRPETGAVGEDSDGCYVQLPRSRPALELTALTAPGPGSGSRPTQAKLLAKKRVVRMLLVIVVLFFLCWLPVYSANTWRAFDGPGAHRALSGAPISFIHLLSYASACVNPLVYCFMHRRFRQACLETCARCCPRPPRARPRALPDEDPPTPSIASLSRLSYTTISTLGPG
Briefly: Competition binding assay with [^90Y]Y-CP04 as competitive radioligand in A431-CCK2R(+) cells. To be noted: 0.5 mln per well, radioligand [^90Y]Y-CP04 0.24 pmol per well, 1 h at 37 °C, competitor 10^-6–10^-13 M, cell-associated radioactivity by gamma counter, mean ± SD, n = 3 experiments in triplicate, read-out: apparent 50% inhibitory concentration (IC50) for hCCK-2R. As for the experimental part: The A431 human epidermoid carcinoma cell line stably transfected with the human CCK2R (A431-CCK2R(+)) and mock transfected with an empty vector alone (A431-CCK2R(−)) were kindly provided by Prof. Luigi Aloj.
The cells were cultured in Dulbecco’s modified Eagle’s medium (DMEM) supplemented with 10% of heat-inactivated fetal bovine serum and antibiotics (penicillin 100 U/mL and streptomycin 100 μg/mL) and cultivated at 37 °C in 5% CO2.
The binding affinity (the apparent 50% inhibitory concentration (IC50)) of [^natGa]Ga-CP04 and [^natLu]Lu-CP04 complexes for CCK2 receptor was determined in A431-CCK2R(+) cell line using [^90Y]Y-CP04 as a competitive radioligand according to the method used by Roosenburg et al.. [^90Y]Y-CP04 was obtained with a molar activity of 2.05 GBq/μmol calculated at the time of experiment and 98% radiochemical purity as determined by radio HPLC method. Human epidermoid carcinoma (A431-CCK2(+)) cells were subcultured overnight in 12-well plates in concentration of 0.5 mln per well. Before the experiments, the cells were washed with DMEM medium and then [^90Y]Y-labeled CP04 (2.05 GBq/μmol) was added to the cells in amount of 0.24 pmol per well (ca. 80,000 cpm) and incubated for 1 h at 37 °C with increasing concentrations (10^−6–10^−13 M) of the Ga and Lu complexes of CP04 peptide. […]

In assay [2] the test system is CCK-2R. To be noted: literature SAR of CCK/gastrin derivatives; cited from earlier work. The source says: Table 3 SAR data from CCK/gastrin derivatives and their correspondence to our model | column: SAR data from CCK/gastrin derivatives

In the case of `CSCC[C@H](NC(=O)[C@H](Cc1c[nH]c2ccccc12)NC(=O)CNC(=O)[C@H](Cc1ccc(O)cc1)NC(=O)[C@H](C)NC(=O)[C@@H](CCC(=O)O)NC(=O)[C@@H](CCC(=O)O)NC(=O)[C@@H](CCC(=O)O)NC(=O)[C@@H](CCC(=O)O)NC(=O)[C@@H](CCC(=O)O)NC(=O)[C@@H](CCC(=O)O)NC(=O)CN1CCN(CC(=O)O)CCN(CC(=O)O)CCN(CC(=O)O)CC1)C(=O)N[C@@H](CC(=O)O)C(=O)N[C@@H](Cc1ccccc1)C(N)=O` [[^natGa]Ga-CP04, metal not drawn], in assay [1], the IC50 stood at 1.15 ± 0.39 nM.

On to `CSCC[C@H](NC(=O)[C@H](Cc1c[nH]c2ccccc12)NC(=O)CNC(=O)[C@H](Cc1ccc(O)cc1)NC(=O)[C@H](C)NC(=O)[C@@H](CCC(=O)O)NC(=O)[C@@H](CCC(=O)O)NC(=O)[C@@H](CCC(=O)O)NC(=O)[C@@H](CCC(=O)O)NC(=O)[C@@H](CCC(=O)O)NC(=O)[C@@H](CCC(=O)O)NC(=O)CN1CCN(CC(=O)O)CCN(CC(=O)O)CCN(CC(=O)O)CC1)C(=O)N[C@@H](CC(=O)O)C(=O)N[C@@H](Cc1ccccc1)C(N)=O` [[^natLu]Lu-CP04, metal not drawn], for which the IC50 in assay [1] was 1.02 ± 0.28 nM. As to “H-Trp-Met-Asp-Phe-NH2 [CCK-4, C-terminal tetrapeptide of CCK]”, in assay [2], the “binding to the receptor (SAR data in words)” value was 1. C-terminal sequence in cholecystokinins and gastrins is a condition necessary and sufficient for high affinity towards the receptor 2. Even a fragment as small as a tetrapeptide H-Trp-Met-Asp-Phe-NH2 (CCK-4) exhibits relatively good binding.
